Results on two compounds are retold here after patent US20170042880A1, “Method of Treating Lung Adenocarcinoma” (Exelixis, Inc., priority 2014, published 2017).

Assay [1] concerns NCI-H2228 cells (EML4-ALK fusion). Put plainly: BrdU ELISA proliferation of NCI-H2228 cells. As to conditions: Homo sapiens, BrdU incorporation. Type of assay: cell-based. As for the experimental part: (§1) Both HCC-78 and NCI-H2228 cells were received from DSMZ and ATCC respectively as a frozen biological sample thawed into a T-75 flask (Nunc) and grown until 80 to 90% confluent for adherent cells or until cells were at a density of 1-2×10^6 cells/mL for suspension cells.
(§2) Cells were grown at 37° C. in a humidified, 5% CO2 atmosphere for 16 hours. […] Cells were assayed for proliferation by monitoring BrdU incorporation. […] After BrdU labelling, cells were fixed with FixDenat solution. anti-BrdU peroxidase (POD) conjugate was added and plates were washed with 1×PBS. Substrate solution was added, and luminescence measurements were taken on a Victor Wallac V plate reader (Perkin Elmer).

The next assay addresses T1, SLC34A2-ROS1 fusion (Homo sapiens, UniProt P08922).
T1 construct: a portion of the ROS1 polypeptide comprising the kinase domain of the ROS1 protein; N-terminal portion of SLC34A2 (natural fusion partner, O95436); host or cells: HCC-78 (human NSCLC adenocarcinoma); the other entry of the earlier key: SLC34A2 (O95436, Sodium-dependent phosphate transport protein 2B)
Put plainly: Inhibition of ROS1 phosphorylation in HCC-78 cells (western blot). Format: cell-based. Particulars: single escalating doses, 3 hour incubation, versus Crizotinib. How it is done:
HCC-78 cells, a human lung NSCLC adenocarcinoma cell line (DSMZ, ACC 563) harboring the activating SLC34A2-ROS1 fusion and phosphor-Met, were seeded at 3×10^5 cells/well onto 6-well plates (Nunclon, 152795), RPMI 1640 (ATCC, 30-2001) containing 10% FBS (heat-inactivated, Cellgro) and 1% penicillin-streptomycin (Cellgro). DMSO or serial dilutions of compound 1 in fresh medium with 10% FBS in a final concentration of 0.3% DMSO (vehicle) were added to the cells and incubated for 3 hour. After treatment, cells were collected and washed with cold PBS and immediately lysed with 0.15 mL of cold lysis buffer (50 mM Tris HCl, pH 8.0, 150 mM NaCl, 1% NP 40, 0.1% SDS, 0.5% sodium deoxycholate, 1 mM EDTA, 50 mM NaF, 1 mM sodium pyrophosphate, 1 mM Na3VO4, 2 mM PMSF, 10 μg/mL aprotinin, 5 μg/mL leupeptin and 5 pμg/mL pepstatin A). Lysates were collected, and protein concentrations were measured by the BCA method (Pierce). […] The membranes were scanned using the Odyssey Scanner (Li-Cor) and the signal intensity of each band was quantified using ImageQuant (Molecular Devices). IC50 values were calculated based on the signal with compound treatment compared to the vehicle (DMSO) control.
In general terms: A western blot detects proteins with antibodies after separation by electrophoresis.

Another assay addresses RET (Homo sapiens, UniProt P07949). Particulars: cited from earlier work.
For assay [2], the system named is HCC-78 NSCLC cells (SLC34A2-ROS1 fusion). Put plainly: ROS1-dependent proliferation of HCC-78 NSCLC cells (BrdU ELISA). Format: cell-based. Particulars: Homo sapiens. As for the experimental part:
as §1, §2
(Dividing cells build labelled thymidine or BrdU into new DNA.)

Molecules are shown by their SMILES. Like-named read-outs stand apart in the source and are kept apart here.

RET, sequence (P07949 29-1114, species assumed): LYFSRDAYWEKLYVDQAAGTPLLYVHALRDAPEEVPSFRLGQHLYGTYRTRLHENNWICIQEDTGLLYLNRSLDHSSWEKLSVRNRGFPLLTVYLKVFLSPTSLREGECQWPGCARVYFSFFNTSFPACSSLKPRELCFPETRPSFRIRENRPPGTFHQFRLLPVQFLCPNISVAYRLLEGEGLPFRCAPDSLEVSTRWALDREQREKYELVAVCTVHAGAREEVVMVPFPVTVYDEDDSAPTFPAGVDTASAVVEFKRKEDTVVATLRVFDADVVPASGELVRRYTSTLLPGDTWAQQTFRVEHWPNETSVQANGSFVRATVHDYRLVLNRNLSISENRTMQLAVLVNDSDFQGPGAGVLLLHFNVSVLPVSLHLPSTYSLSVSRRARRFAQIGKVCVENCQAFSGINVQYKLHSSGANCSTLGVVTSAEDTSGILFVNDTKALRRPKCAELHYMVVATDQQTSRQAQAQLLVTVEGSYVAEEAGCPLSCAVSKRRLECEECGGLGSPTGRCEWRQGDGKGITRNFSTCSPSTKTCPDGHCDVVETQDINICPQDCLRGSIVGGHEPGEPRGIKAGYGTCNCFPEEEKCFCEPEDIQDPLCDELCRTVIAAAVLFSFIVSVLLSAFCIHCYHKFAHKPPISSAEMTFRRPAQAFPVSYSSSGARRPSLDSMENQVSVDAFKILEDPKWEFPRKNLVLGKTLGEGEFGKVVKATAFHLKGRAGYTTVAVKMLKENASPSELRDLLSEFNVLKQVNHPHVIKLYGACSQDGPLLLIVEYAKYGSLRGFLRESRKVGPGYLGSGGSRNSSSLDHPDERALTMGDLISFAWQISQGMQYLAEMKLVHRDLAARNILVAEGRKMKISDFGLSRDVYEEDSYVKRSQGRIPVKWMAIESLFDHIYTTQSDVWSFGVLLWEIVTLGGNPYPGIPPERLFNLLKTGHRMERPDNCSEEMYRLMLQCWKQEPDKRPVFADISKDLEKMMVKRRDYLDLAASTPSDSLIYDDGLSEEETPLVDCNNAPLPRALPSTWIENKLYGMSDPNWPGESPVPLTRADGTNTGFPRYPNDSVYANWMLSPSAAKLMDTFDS
T1 sequence (P08922 1945-2222 limits assumed): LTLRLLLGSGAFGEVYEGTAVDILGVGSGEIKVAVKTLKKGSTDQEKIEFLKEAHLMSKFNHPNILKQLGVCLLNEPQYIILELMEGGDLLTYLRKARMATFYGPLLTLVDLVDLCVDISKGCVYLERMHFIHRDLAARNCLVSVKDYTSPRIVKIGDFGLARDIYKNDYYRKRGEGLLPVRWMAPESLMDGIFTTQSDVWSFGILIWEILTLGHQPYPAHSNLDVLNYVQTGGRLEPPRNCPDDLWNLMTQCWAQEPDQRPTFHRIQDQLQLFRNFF

As to `COc1cc2nccc(Oc3ccc(NC(=O)C4(C(=O)Nc5ccc(F)cc5)CC4)cc3)c2cc1OC` [Compound 1, N-(4-{[6,7-bis(methyloxy)quinolin-4-yl]oxy}phenyl)-N′-(4-fluorophenyl)cyclopropane-1,1-dicarboxamide], the IC50 is 1 to 5 µM in assay [1] (NCI-H2228, 48 hr incubation, read-out: 48 hr Prolif. IC50); 5 to 10 µM in assay [1] (NCI-H2228, 72 hr incubation, read-out: 72 hr Prolif. IC50); 10 to 100 nM in assay [2] (HCC78, HCC-78, 48 hr incubation, BrdU incorporation, read-out: 48 hr Prolif. IC50); 10 to 100 nM in assay [2] (HCC78, HCC-78, 72 hr incubation, BrdU incorporation, read-out: 72 hr Prolif. IC50). On SLC34A2-ROS1 fusion, the “Inhibition of SLC34A2-ROS1 mediated kinase activity (ROS1 phosphorylation)” value is on record as “more potent than the comparator control”. Moreover, the “inhibitor of RET” value at RET is “potent inhibitor”.
For the compound `C[C@@H](Oc1cc(-c2cnn(C3CCNCC3)c2)cnc1N)c1c(Cl)ccc(F)c1Cl` [Crizotinib, 3-[(1R)-1-(2,6-dichloro-3-fluorophenyl)ethoxy]-5-(1-piperidin-4-ylpyrazol-4-yl)pyridin-2-amine, reference compound], the IC50 in assay [2] (HCC78, 48 h, read-out: 48 hr Prolif. IC50 (nM)) was 100 to 500 nM; in assay [2] (HCC78, 72 h, read-out: 72 hr Prolif. IC50 (nM)), 10 to 100 nM.

A word on the IC50: it is the concentration at which inhibition is half-maximal.
